Experimental data from DBAASP.
In brackets after ≈: the same amount, converted by molar mass. Values belong to the compound of their own block, whether it stands above or below them.

Experiments:
Experiment in all cases: ≥ marks a high value that may be exact or a test limit, other limits are often not marked, values filed in µg/mL are converted to µM
Bacillus cereus AS1.1846 = tested on: Bacillus cereus AS1.1846
[1] = tested on: Listeria monocytogenes ATCC 19114
[2] = tested on: Escherichia coli ATCC 25922
[3] = tested on: Staphylococcus aureus ATCC 25923
[4] = tested on: Candida albicans NCTC 3179
[5] = tested on: Listeria innocua CICC 10417
[6] = tested on: Escherichia coli CICC 10293
[7] = tested on: Pseudomonas aeruginosa CICC 21636
[8] = tested on: Bacillus subtilis CICC 10034
[9] = tested on: Bacillus megaterium CICC 10448
[10] = tested on: Enterobacter cloacae CICC 21539
[11] = tested on: Staphylococcus aureus CICC 10306
[12] = tested on: Staphylococcus aureus CICC 10384
[13] = tested on: Escherichia coli CICC 10300
[14] = tested on: Serratia marcescens ATCC 4112
[15] = tested on: Escherichia coli CGMCC 3373
[16] = tested on: Salmonella enterica subsp. enterica serovar Paratyphi B CICC 10437
[17] = tested on: Escherichia coli CICC 10302
[18] = tested on: Alcaligenes faecalis ATCC 8750
[19] = tested on: Staphylococcus aureus ATCC 6538P
[20] = tested on: Escherichia coli K-12 594
[21] = tested on: Staphylococcus aureus SR1550
[22] = tested on: Pseudomonas aeruginosa PA-W1
[23] = tested on: Pseudomonas aeruginosa PA-W14
[24] = tested on: Staphylococcus aureus NCTC 8325-4
Escherichia coli K-12 = tested on: Escherichia coli K-12
Klebsiella pneumoniae = tested on: Klebsiella pneumoniae
[25] = tested on: Pseudomonas aeruginosa PAO1
Staphylococcus aureus = tested on: Staphylococcus aureus
[26] = tested on: Escherichia coli ATCC 11775
[27] = tested on: Escherichia coli ATCC 35218
[28] = tested on: Salmonella enterica subsp. enterica serovar Typhimurium ATCC 14028
[29] = tested on: Salmonella enterica subsp. enterica serovar Typhi Vi+
[30] = tested on: Aspergillus fumigatus KCTC 6145
[31] = tested on: Listeria monocytogenes KCTC 3710
Fusarium verticillioides = tested on: Fusarium verticillioides
Botrytis cinerea = tested on: Botrytis cinerea
Escherichia coli = tested on: Escherichia coli
[32] = tested on: Aspergillus flavus KCTC 9471
Trichosporon beigelii = tested on: Trichosporon beigelii
[33] = tested on: Candida albicans KCTC 7270
Pseudomonas aeruginosa = tested on: Pseudomonas aeruginosa
Bacillus subtilis = tested on: Bacillus subtilis
[34] = tested on: Escherichia coli O157:H7 ATCC 43895
Proteus vulgaris = tested on: Proteus vulgaris
Saccharomyces cerevisiae = tested on: Saccharomyces cerevisiae
Salmonella typhimurium = tested on: Salmonella typhimurium
[35] = tested on: Staphylococcus epidermidis

MIC (Bacillus cereus AS1.1846): 16.4 µM (≈ 16 µg/mL) | MIC [1]: 16.4 µM (≈ 16 µg/mL)
SMILES: CC(C)[C@H](N)C(=O)N[C@@H](CO)C(=O)NCC(=O)N1CCC[C@H]1C(=O)N[C@@H](C)C(=O)NCC(=O)N1CCC[C@H]1C(=O)N1CCC[C@H]1C(=O)NCC(=O)N[C@H](C(=O)N[C@@H](Cc1cnc[nH]1)C(=O)O)[C@@H](C)O [VSGPAGPPGTH]

MIC [19]: 19 µM (≈ 16 µg/mL) | MIC [20]: 29.8 µM (≈ 25 µg/mL) | MIC [21]: ≥ 41.7 µM
SMILES: CC(C)C[C@H](NC(=O)[C@H](CC(C)C)NC(=O)[C@H](CC(C)C)NC(=O)[C@H](CC(C)C)NC(=O)[C@H](CC(C)C)NC(=O)[C@@H](N)CCCCN)C(=O)N[C@@H](CCCCN)C(N)=O [KLLLLLK]

MIC [22]: 15.6 µM (≈ 29.7 µg/mL) | MIC [23]: 31.3 µM (≈ 59.6 µg/mL) | MIC [24]: 7.81 µM (≈ 14.9 µg/mL) | MIC (Escherichia coli K-12): 15.6 µM (≈ 29.7 µg/mL) | MIC (Klebsiella pneumoniae): 15.6 µM (≈ 29.7 µg/mL) | MIC [25]: 15.6 µM (≈ 29.7 µg/mL) | MIC (Staphylococcus aureus): 7.81 µM (≈ 14.9 µg/mL)
SMILES: NCCCC[C@H](NC(=O)[C@H](CCCCN)NC(=O)[C@H](Cc1c[nH]c2ccccc12)NC(=O)[C@H](Cc1c[nH]c2ccccc12)NC(=O)[C@H](CCCCN)NC(=O)[C@H](CCCCN)NC(=O)[C@H](Cc1c[nH]c2ccccc12)NC(=O)[C@H](Cc1c[nH]c2ccccc12)NC(=O)[C@H](CCCCN)NC(=O)[C@H](CCCCN)NC(=O)[C@@H](N)Cc1c[nH]c2ccccc12)C(=O)N[C@@H](Cc1c[nH]c2ccccc12)C(N)=O [WKKWWKKWWKKW]

Continued, compound first:

SMILES: CC[C@H](C)[C@H](NC(=O)[C@H](CCCCN)NC(=O)[C@@H](NC(=O)[C@@H](NC(=O)[C@H](CO)NC(=O)[C@H](CC(=O)O)NC(=O)[C@@H](NC(=O)[C@H](CC(N)=O)NC(=O)[C@@H](N)CC(=O)O)[C@@H](C)O)C(C)C)C(C)C)C(=O)N[C@@H](CCC(N)=O)C(=O)N[C@@H](CO)C(=O)N[C@@H](Cc1c[nH]c2ccccc12)C(=O)N[C@@H](Cc1ccccc1)C(=O)N[C@@H](CCCN=C(N)N)C(=O)N[C@@H](CCSC)C(=O)N[C@@H](C)C(=O)N[C@H](C(=O)N[C@@H](C)C(=O)N[C@@H](CCCN=C(N)N)C(=O)N[C@@H](CCCCN)C(=O)N[C@@H](CO)C(=O)N[C@@H](Cc1ccc(O)cc1)C(=O)N[C@@H](CC(C)C)C(=O)O)[C@@H](C)O [DNTDSVVKIQSWFRMATARKSYL]
MIC [2]: 1.25 µM (≈ 3.4 µg/mL) | MIC [3]: 26.5 µM (≈ 72 µg/mL) | MIC [4]: 25.8 µM (≈ 70 µg/mL)

SMILES: CC[C@H](C)[C@H](NC(=O)[C@H](C)N)C(=O)NCC(=O)N[C@@H](Cc1cnc[nH]1)C(=O)N[C@@H](CS)C(=O)N[C@@H](CC(C)C)C(=O)NCC(=O)N[C@@H](C)C(=O)N[C@H](C(=O)N[C@@H](CC(C)C)C(=O)O)[C@@H](C)O [AIGHCLGATL]
MIC [5]: ≥ 33.5 µM | MIC [6]: 8.38 µM | MIC [7]: 4.19 µM | MIC [8]: ≥ 33.5 µM | MIC [9]: 8.38 µM | MIC [10]: 4.19 µM | MIC [11]: ≥ 33.5 µM | MIC [12]: ≥ 33.5 µM | MIC [13]: 8.38 µM | MIC [14]: 8.38 µM | MIC [15]: 8.38 µM | MIC [16]: 8.38 µM | MIC [17]: 8.38 µM | MIC [18]: 8.38 µM

SMILES: CC[C@H](C)[C@H](NC(=O)[C@@H]1CCCN1C(=O)[C@H](CCCN=C(N)N)NC(=O)[C@@H]1CCCN1C(=O)[C@H](Cc1cnc[nH]1)NC(=O)[C@@H]1CCCN1C(=O)[C@@H]1CCCN1C(=O)[C@@H]1CCCN1C(=O)[C@H](CCCN=C(N)N)NC(=O)[C@@H]1CCCN1C(=O)[C@@H]1CCCN1C(=O)[C@H](Cc1ccc(O)cc1)NC(=O)[C@@H]1CCCN1C(=O)[C@H](CCCN=C(N)N)NC(=O)[C@@H]1CCCN1C(=O)[C@H](CCCCN)NC(=O)CN)C(=O)N[C@@H](CCCN=C(N)N)C(=O)N[C@H](C(=O)O)C(C)C [GKPRPYPPRPPPHPRPIRV]
MIC [26]: 0.3 µM (≈ 0.664 µg/mL) | MIC [2]: 0.3 µM (≈ 0.664 µg/mL) | MIC [27]: 0.2 µM (≈ 0.443 µg/mL) | MIC [28]: 0.6 µM (≈ 1.33 µg/mL) | MIC [29]: 0.6 µM (≈ 1.33 µg/mL)

SMILES: CC[C@H](C)[C@H](NC(=O)[C@H](CCCCN)NC(=O)[C@H](CO)NC(=O)[C@H](Cc1ccccc1)NC(=O)[C@H](CC(C)C)NC(=O)[C@H](CCCCN)NC(=O)[C@H](CCC(=O)O)NC(=O)[C@H](CC(C)C)NC(=O)[C@H](CCCN=C(N)N)NC(=O)[C@H](CCCCN)NC(=O)[C@H](Cc1ccccc1)NC(=O)[C@@H](NC(=O)[C@H](CCCCN)NC(=O)[C@H](CCCCN)NC(=O)[C@H](C)N)C(C)C)C(=O)N[C@@H](CCC(N)=O)C(=O)N[C@@H](CC(N)=O)C(=O)N[C@@H](Cc1c[nH]c2ccccc12)C(=O)N[C@@H](CCCCN)C(N)=O [AKKVFKRLEKLFSKIQNWK]
MIC [30]: ≥ 50 µM | MIC [31]: 0.78 µM (≈ 1.86 µg/mL) | MIC (Fusarium verticillioides): 12.5 µM (≈ 29.9 µg/mL) | MIC (Botrytis cinerea): 6.25 µM (≈ 14.9 µg/mL) | MIC (Escherichia coli): 0.78 µM (≈ 1.86 µg/mL) | MIC [32]: ≥ 50 µM | MIC (Trichosporon beigelii): 1.56 µM (≈ 3.73 µg/mL) | MIC [33]: 25 µM (≈ 59.8 µg/mL) | MIC (Pseudomonas aeruginosa): 3.13 µM (≈ 7.48 µg/mL) | MIC (Bacillus subtilis): 1.56 µM (≈ 3.73 µg/mL) | MIC [34]: 6.25 µM (≈ 14.9 µg/mL) | MIC (Staphylococcus aureus): 3.13 µM (≈ 7.48 µg/mL) | MIC (Proteus vulgaris): 3.13 µM (≈ 7.48 µg/mL) | MIC (Saccharomyces cerevisiae): 25 µM (≈ 59.8 µg/mL) | MIC (Salmonella typhimurium): 0.39 µM (≈ 0.932 µg/mL) | MIC [35]: 3.13 µM (≈ 7.48 µg/mL)
